Source: ChEMBL document CHEMBL3044712, “Herbicidal potential of pseudoguaninolide sesquiterpenes on wild oat, Avena fatua L” (Biochem Syst Ecol, 2012)
pEC50: −log10 of the molar value.

Columns and labels:
Avena fatua [1] = assay: Phytotoxicity against Avena fatua assessed as inhibition of root growth as root length at 0.125 mM (reference value: 9.6 +/- 0.36%); type: functional; conditions: read-out: GI
Avena fatua [2] = assay: Phytotoxicity against Avena fatua assessed as seed germination at 0.5 mM measured after 10 days sowing (reference value: 50 +/- 2.89%); type: functional
Avena fatua [3] = assay: Phytotoxicity against Avena fatua assessed as inhibition of shoot growth as shoot length at 2 mM (reference value: 11.2 +/- 0.35%); type: functional; conditions: read-out: GI
Avena fatua [4] = assay: Phytotoxicity against Avena fatua assessed as inhibition of root growth as root length at 1 mM (reference value: 9.6 +/- 0.36%); type: functional; conditions: read-out: GI
Avena fatua [5] = assay: Phytotoxicity against Avena fatua assessed as inhibition of root growth as root length at 0.25 mM measured after 10 days sowing (reference value: 9.6 +/- 0.36%); type: functional; conditions: 240 h, read-out: GI
Avena fatua [6] = assay: Phytotoxicity against Avena fatua assessed as inhibition of shoot growth as shoot length; type: functional, organism-based
Avena fatua [7] = assay: Phytotoxicity against Avena fatua assessed as inhibition of shoot growth as shoot length at 0.25 mM (reference value: 11.2 +/- 0.35%); type: functional; conditions: read-out: GI
Avena fatua [8] = assay: Phytotoxicity against Avena fatua assessed as inhibition of root growth as root length at 2 mM (reference value: 9.6 +/- 0.36%); type: functional; conditions: read-out: GI
Avena fatua [9] = assay: Phytotoxicity against Avena fatua assessed as seed germination at 1 mM measured after 10 days sowing (reference value: 50 +/- 2.89%); type: functional
Avena fatua [10] = assay: Phytotoxicity against Avena fatua assessed as inhibition of shoot growth as shoot length at 0.125 mM (reference value: 11.2 +/- 0.35%); type: functional; conditions: read-out: GI
Avena fatua [11] = assay: Phytotoxicity against Avena fatua assessed as inhibition of root growth as root length; type: functional, organism-based
Avena fatua [12] = assay: Phytotoxicity against Avena fatua assessed as seed germination at 2 mM measured after 10 days sowing (reference value: 50 +/- 2.89%); type: functional
Avena fatua [13] = assay: Phytotoxicity against Avena fatua assessed as inhibition of shoot growth as shoot length at 1 mM (reference value: 11.2 +/- 0.35%); type: functional; conditions: read-out: GI
Avena fatua [14] = assay: Phytotoxicity against Avena fatua assessed as seed germination at 0.125 mM measured after 10 days sowing (reference value: 50 +/- 2.89%); type: functional
Avena fatua [15] = assay: Phytotoxicity against Avena fatua assessed as inhibition of shoot growth as shoot length at 0.5 mM (reference value: 11.2 +/- 0.35%); type: functional; conditions: read-out: GI
Avena fatua [16] = assay: Phytotoxicity against Avena fatua assessed as inhibition of root growth as root length at 0.5 mM (reference value: 9.6 +/- 0.36%); type: functional; conditions: read-out: GI
Avena fatua [17] = assay: Phytotoxicity against Avena fatua assessed as seed germination at 0.25 mM measured after 10 days sowing (reference value: 50 +/- 2.89%); type: functional

Row | Compound | inhibition of growth at 125 µM (Avena fatua [1]) | Activity (Avena fatua [2]) | inhibition of growth at 2000 µM (Avena fatua [3]) | inhibition of growth at 1000 µM (Avena fatua [4]) | inhibition of growth at 250 µM (Avena fatua [5]) | pEC50 (Avena fatua [6]) | inhibition of growth at 250 µM (Avena fatua [7]) | inhibition of growth at 2000 µM (Avena fatua [8]) | Activity (Avena fatua [9]) | inhibition of growth at 125 µM (Avena fatua [10]) | pEC50 (Avena fatua [11]) | Activity (Avena fatua [12]) | inhibition of growth at 1000 µM (Avena fatua [13]) | Activity (Avena fatua [14]) | inhibition of growth at 500 µM (Avena fatua [15]) | inhibition of growth at 500 µM (Avena fatua [16]) | Activity (Avena fatua [17])
1 | C=C1C(=O)O[C@@H]2[C@H]1CC[C@H](C)[C@@H]1CCC(=O)[C@@]21C [DAMSIN] | 30.2% | 30% | 83.9% | 92.4% | 55.2% | 3.08 | 5.4% | 98.2% | 26.7% | 1.8% | 3.62 | 16.7% | 66.1% | 46.7% | 22.3% | 65.6% | 35%
2 | C=C1C(=O)O[C@@H]2[C@H]1CC[C@H](C)[C@@H]1C=CC(=O)[C@@]21C [AMBROSIN] | 22.9% | 28.3% | 86.6% | 92.4% | 57.3% | 3.52 | 51.8% | 99% | 26.7% | 19.6% | 3.66 | 26.7% | 75.9% | 50% | 74.1% | 85.4% | 36.7%
3 | C=C(C(=O)O)[C@@H]1CC[C@H](C)[C@@H]2CCC(=O)[C@@]2(C)C1 [DAMCINIC ACID] | 4.2% | 38.3% | 70.5% | 64.6% | 31.3% | 2.96 | 6.3% | 79.2% | 38.3% | 3.6% | 3.22 | 28.3% | 44.6% | 41.7% | 29.5% | 50% | 40%
4 | C=C1C(=O)O[C@@H]2[C@H]1CC[C@H](C)[C@@]1(O)C=CC(=O)[C@@]21C [HYMENIN] | 8.3% | 33.3% | 80.4% | 72.9% | 15.6% | 3.17 | 25% | 95.6% | 30% | 10.7% | 3.24 | 30% | 60.7% | 38.3% | 39.3% | 37.5% | 36.7%
5 | C=C1C(=O)O[C@@H]2[C@H]1CC[C@H](C)C1=CCC(=O)[C@]12C [NEOAMBROSIN] | 11.5% | 36.7% | 84.8% | 61.5% | 40.6% | 3.02 | 10.7% | 94.8% | 40% | 2.7% | 3.32 | 23.3% | 43.8% | 46.7% | 20.5% | 45.6% | 40%
